Test results as given in the supplement of paper PMC10307832.

Columns and labels:
Experiment in all cases: relative viability (nuclei count vs DMSO), 5 days (fraction); higher = more cells survive
[1] = compound: CC1=CC(=CC=C1)NC2=NC(=CS2)C3=CC=NC=C3 + C[C@@H](Oc1cc(-c2cnn(C3CCNCC3)c2)cnc1N)c1c(Cl)ccc(F)c1Cl [Crizotinib] (partner 1 µM)
Summary of the method: (§1)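 Lung cancer cell lines in 1536-well plates were dosed by pin tool the day after seeding, either with one drug alone or with a fixed anchor-drug dose plus five library-drug doses (not always all listed) in √10 steps. After 5 days, cells were fixed and their nuclei stained in one step (final 0.05% Triton X-100, 1% formaldehyde, 1 ug/ml Hoechst), then counted on 4× images. Relative viability is the nuclei count in treated wells divided by that in vehicle wells. Values are medians of duplicate plates.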

[2] = compound: CC1=CC(=CC=C1)NC2=NC(=CS2)C3=CC=NC=C3 + C[C@]1(O)C[C@@H](c2nc(-c3ccc4ccc(-c5ccccc5)nc4c3)c3c(N)nccn32)C1 [Linsitinib] (partner 1 µM)
Summary of the method: as §1

[3] = compound: CC1=CC(=CC=C1)NC2=NC(=CS2)C3=CC=NC=C3 + COc1cc2c(Oc3ccc(NC(=O)C4(C(=O)Nc5ccc(F)cc5)CC4)cc3F)ccnc2cc1OCCCN1CCOCC1 [Foretinib] (partner 0.25 µM)
Summary of the method: as §1

Masitinib + Pictilisib = compound: Cc1ccc(NC(=O)c2ccc(CN3CCN(C)CC3)cc2)cc1Nc1nc(-c2cccnc2)cs1 [Masitinib] + CS(=O)(=O)N1CCN(Cc2cc3nc(-c4cccc5[nH]ncc45)nc(N4CCOCC4)c3s2)CC1 [Pictilisib] (partner 1 µM)
Summary of the method: as §1

Cell Line	relative viability ([1]; first compound 0.08 µM)	relative viability ([1]; first compound 0.253 µM)	relative viability ([1]; first compound 0.8 µM)	relative viability ([1]; first compound 2.53 µM)	relative viability ([1]; first compound 8 µM)	relative viability ([2]; first compound 0.08 µM)	relative viability ([2]; first compound 0.253 µM)	relative viability ([2]; first compound 0.8 µM)	relative viability ([2]; first compound 2.53 µM)	relative viability ([2]; first compound 8 µM)	relative viability ([3]; first compound 0.08 µM)	relative viability ([3]; first compound 0.253 µM)	relative viability ([3]; first compound 0.8 µM)	relative viability ([3]; first compound 2.53 µM)	relative viability ([3]; first compound 8 µM)	relative viability (Masitinib + Pictilisib; first compound 0.01 µM)	relative viability (Masitinib + Pictilisib; first compound 0.03162 µM)	relative viability (Masitinib + Pictilisib; first compound 0.1 µM)	relative viability (Masitinib + Pictilisib; first compound 0.3162 µM)	relative viability (Masitinib + Pictilisib; first compound 1 µM)
NCI-H441	0.751	0.831	0.791	0.69	0.663	0.497	0.574	0.708	0.523	0.497	0.754	0.791	1.12	0.857	0.842	0.654	0.449	0.601	0.482	0.446
PC-14	0.87	0.881	0.821	0.951	0.695	0.858	0.944	0.86	1.01	0.844	0.875	0.891	0.889	0.959	0.928	0.603	0.613	0.77	0.747	0.657
HARA	0.804	1	0.994	0.998	0.986	0.919	0.877	0.735	0.712	0.789	0.522	0.952	0.848	0.769	0.821	0.389	0.331	0.448	0.372	0.412
NCI-H2126	0.975	1.01	1	0.983	0.846	0.671	0.694	0.71	0.726	0.657	0.858	1.11	1.08	0.982	0.862	0.514	0.459	0.459	0.414	0.467
NCI-H1563	0.958	0.916	0.887	0.909	0.86	1.11	1.12	1.19	1.29	1.18	0.772	0.962	0.974	0.912	0.765	0.656	0.641	0.647	0.665	0.676
NCI-H1915	0.84	0.784	0.838	0.87	0.8	1.1	1.08	1.05	1.09	0.989	1.05	1.1	1.06	1.07	0.977	–	0.97	0.664	0.853	0.908
NCI-H661	0.974	1	0.925	0.935	0.908	0.589	0.577	0.577	0.63	0.643	0.904	1.07	0.973	0.999	0.863	0.439	0.356	0.511	0.371	0.346
COR-L23	0.553	0.483	0.487	0.646	0.583	0.821	0.89	0.62	0.892	0.843	0.986	0.945	0.886	0.864	0.87	0.751	0.749	0.844	0.932	0.893
COR-L 105	0.626	0.604	0.634	0.701	0.468	0.822	0.738	0.803	0.808	0.653	1.16	0.977	1.01	1.01	0.562	0.396	0.356	0.395	0.412	0.428
LK-2	0.261	0.197	0.229	–	0.246	0.581	0.778	0.729	0.413	0.427	–	1.18	1.36	–	1.67	0.595	0.656	0.671	0.569	0.641
201T	1.01	0.993	0.955	1.06	0.869	1.03	1.05	1	0.817	0.852	0.835	–	0.939	0.759	0.871	0.642	0.623	0.646	0.556	0.639
NCI-H647	1.04	0.909	0.953	1.02	0.86	1.01	0.992	1.05	1.1	0.815	0.994	1.15	1.03	1.17	1.1	0.424	0.356	0.44	0.333	0.321
H3255	0.721	0.926	0.821	0.795	0.853	0.95	0.951	0.966	0.795	0.956	0.895	0.464	0.909	0.822	0.875	0.489	0.501	0.542	0.456	0.407
NCI-H650	0.683	0.724	0.615	–	0.914	0.659	0.739	1.13	–	1.06	0.955	0.98	1.08	1.02	1.02	0.921	0.909	1.09	0.864	0.929
NCI-H2085	0.64	0.891	0.918	0.877	0.627	0.901	0.952	0.911	0.838	0.578	0.903	0.994	0.989	0.95	0.759	0.522	0.455	0.469	0.396	0.595
NCI-H2347	0.544	0.688	0.468	0.789	0.777	0.751	0.802	0.688	0.948	0.93	0.926	0.721	0.855	0.994	0.842	0.742	0.646	0.668	0.825	0.685
NCI-H1944	1.08	0.98	0.973	1.01	0.948	1.17	1.15	1.26	1.19	1.12	0.863	0.85	0.862	0.75	0.777	–	0.334	0.352	0.317	0.345
